Assay results taken from patent publication US5175320A, “Fluorinated bile acid derivatives, processes for the preparation thereof and pharmaceutical compositions containing them” (Giuliani S.p.A., priority 1989, dated 1992).
Values after ≈ are worked out from the molar mass of the structure shown. “Also recorded” adds a separate entry of the source.

Assays:
[1] = detergency, critical micellar concentration; format: physicochemical; conditions: for CMC: Table 1
Procedure: (§1) 6-FCDCA has been submitted to a series of physico-chemical determinations following a previously described protocol. Particularly, the lypophilicity, detergency, water solubility and pKa were measured.

[2] = lypophilicity by C/18 reverse phase HPLC; format: physicochemical; conditions: for rK' C-18: rK' = relative values, C-18 reverse phase HPLC
Procedure: as §1

[3] = water solubility (of the protonated forms); format: physicochemical
Procedure: 6-FCDCA has been submitted to a series of physico-chemical determinations following a previously described protocol. Particularly, the lypophilicity, detergency, water solubility and pKa were measured. | rK' = relative values Water solubility of the protonated forms Data on water solubility are reported on the enclosed table 1.

pKa = format: physicochemical
Text: 6-FCDCA has been submitted to a series of physico-chemical determinations following a previously described protocol.

human stools = format: in vitro ADME

Row | Structure (SMILES) | CMC [1] [mmol/1] | rK' C-18 [2] | water solubility [3] [µmol] | S (water solubility) ([3]; protonated forms, Table 1) [µM] | pKa (pKa) | critical micellar concentration [1] [mmol/L] | lypophilicity compared with natural analogues ([2]; C/18 reverse phase HPLC, result in words) | water solubility compared with CDCA [3] | solubility ([3]; water) [µM] | protection of the 7-hydroxy group from oxidation and 7-dehydroxylation (human stools) | stability to intestinal bacteria compared with CDCA (human stools)
1 | C[C@H](CCC(=O)O)[C@H]1CC[C@H]2[C@@H]3[C@H](O)C[C@@H]4C[C@H](O)CC[C@]4(C)[C@H]3CC[C@]12C [CDCA, chenodeoxycholic, reference compound] | 9 | 0.89 | 30 | 30 |  |  |  |  |  |  | 
2 | C[C@H](CCC(=O)O)[C@H]1CC[C@H]2[C@@H]3[C@@H](O)C[C@@H]4C[C@H](O)CC[C@]4(C)[C@H]3CC[C@]12C [UDCA, ursodeoxycholic, reference compound] |  | 0.4 |  |  |  |  |  |  |  |  | 
3 | C[C@H](CCC(=O)O)[C@H]1CC[C@H]2[C@@H]3[C@H](O)C(F)[C@H]4C[C@H](O)CC[C@]4(C)[C@H]3CC[C@]12C (stereo partly drawn) [Example 6-FCDCA, 3α,7α-Dihydroxy-6-fluoro-5α-cholan-24-oic acid] | 10 | 0.6 |  |  | 5 | 10 | lower when compared with CDCA; also recorded: intermediate between CDCA and UDCA; also recorded: less lypohilic than CDCA | slightly higher than that of CDCA | 80 (≈ 32.8 µg/mL) | efficaciously protects the hydroxy group in 7-position to oxidation and 7-dehydroxylation | more stable to intestinal bacteria
